Experimental data as given in patent US9125913B2, “Bcl-2-selective apoptosis-inducing agents for the treatment of cancer and immune diseases” (AbbVie Inc., priority 2008, dated 2015).

System: GST-Bcl-2
Assay: TR-FRET binding assay, Bcl-2
Conditions: TR-FRET Ki values
Summary of the method: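 Compounds serially diluted in DMSO from 50 μM (2× starting concentration, 10% DMSO), mixed with GST-tagged protein, F-Bak peptide probe and Tb-labeled antibody, incubated 3 h at room temperature.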

| Structure (SMILES) | Binding selectivity ratio (Bcl-XL Ki/Bcl-2 Ki) |
| --- | --- |
| O=C(NS(=O)(=O)c1ccc(NCCCN2CCOCC2)c(S(=O)(=O)C(F)(F)F)c1)c1ccc(N2CCN(Cc3ccccc3-c3ccc(Cl)cc3)CC2)cc1Oc1cccc2[nH]ccc12 [Example 65, 4-{4-[(4′-chloro-1,1′-biphenyl-2-yl)methyl]piperazin-1-yl}-2-(1H-indol-4-yloxy)-N-({4-[(3-morpholin-4-ylpropyl)amino]-3-[(trifluoromethyl)sulfonyl]phenyl}sulfonyl)benzamide] | 4.8 |
| C[C@H](c1ccccc1-c1ccc(Cl)cc1)N1CCN(c2ccc(C(=O)NS(=O)(=O)c3ccc(NCC4CCOCC4)c([N+](=O)[O-])c3)c(Oc3cccc4[nH]ccc34)c2)CC1 [EXAMPLE 255, 4-{4-[(1R)-1-(4′-chloro-1,1′-biphenyl-2-yl)ethyl]piperazin-1-yl}-2-(1H-indol-4-yloxy)-N-({3-nitro-4-[(tetrahydro-2H-pyran-4-ylmethyl)amino]phenyl}sulfonyl)benzamide] | >84.2 |
| CC1(C)CCC(CN2CCN(c3ccc(C(=O)NS(=O)(=O)c4ccc(S(C)(=O)=O)cc4)c(Oc4cccc5[nH]ccc45)c3)CC2)=C(c2ccc(Cl)cc2)C1 [EXAMPLE 383, 4-(4-{[2-(4-chlorophenyl)-4,4-dimethylcyclohex-1-en-1-yl]methyl}piperazin-1-yl)-2-(1H-indol-4-yloxy)-N-{[4-(methylsulfonyl)phenyl]sulfonyl}benzamide] | >304.1 |
| CN1CCC(Nc2ccc(S(=O)(=O)NC(=O)c3ccc(N4CCN(CC5=C(c6ccc(Cl)cc6)CC(C)(C)CC5)CC4)c(F)c3Oc3ccc4[nH]ccc4c3)cc2[N+](=O)[O-])CC1 [EXAMPLE 184, 4-(4-{[2-(4-chlorophenyl)-4,4-dimethylcyclohex-1-en-1-yl]methyl}piperazin-1-yl)-3-fluoro-2-(1H-indol-5-yloxy)-N-({4-[(1-methylpiperidin-4-yl)amino]-3-nitrophenyl}sulfonyl)benzamide] | >2345.3 |
| O=C(NS(=O)(=O)c1ccc(NCC2CCOCC2)c([N+](=O)[O-])c1)c1ccc(N2CCN(Cc3cc(OCCCN4CCCCC4)ccc3-c3ccc(Cl)cc3)CC2)cc1Oc1ccccc1 [Example 114, 4-(4-{[4′-chloro-4-(3-piperidin-1-ylpropoxy)-1,1′-biphenyl-2-yl]methyl}piperazin-1-yl)-N-({3-nitro-4-[(tetrahydro-2H-pyran-4-ylmethyl)amino]phenyl}sulfonyl)-2-phenoxybenzamide] | 149.2 |
| CC1(C)CCC(CN2CCN(c3ccc(C(=O)NS(=O)(=O)c4ccc(NCCC#N)c([N+](=O)[O-])c4)c(Oc4ccc5[nH]ccc5c4)c3)CC2)=C(c2ccc(Cl)cc2)C1 [EXAMPLE 319, 4-(4-{[2-(4-chlorophenyl)-4,4-dimethylcyclohex-1-en-1-yl]methyl}piperazin-1-yl)-N-({4-[(2-cyanoethyl)amino]-3-nitrophenyl}sulfonyl)-2-(1H-indol-5-yloxy)benzamide] | 503.4 |
| C#Cc1cc(S(=O)(=O)NC(=O)c2ccc(N3CCN(CC4=C(c5ccc(Cl)cc5)CC(C)(C)CC4)CC3)cc2Oc2cccc3[nH]ccc23)cnc1OCC1CCOCC1 [EXAMPLE 391, 4-(4-{[2-(4-chlorophenyl)-4,4-dimethylcyclohex-1-en-1-yl]methyl}piperazin-1-yl)-N-{[5-ethynyl-6-(tetrahydro-2H-pyran-4-ylmethoxy)pyridin-3-yl]sulfonyl}-2-(1H-indol-4-yloxy)benzamide] | >186.4 |
| CN(C)CCOc1cccc(-c2ccc(Cl)cc2)c1CN1CCN(c2ccc(C(=O)NS(=O)(=O)c3ccc(NCC4CCOCC4)c(S(=O)(=O)C(F)(F)F)c3)c(Oc3ccccc3)c2)CC1 [Example 124, 4-[4-({4′-chloro-3-[2-(dimethylamino)ethoxy]-1,1′-biphenyl-2-yl}methyl)piperazin-1-yl]-2-phenoxy-N-({4-[(tetrahydro-2H-pyran-4-ylmethyl)amino]-3-[(trifluoromethyl)sulfonyl]phenyl}sulfonyl)benzamide] | 220.1 |
| CC1(C)CCC(CN2CCN(c3ccc(C(=O)NS(=O)(=O)c4ccc(NCCN5CCNC(=O)C5)c([N+](=O)[O-])c4)c(Oc4ccc5[nH]ccc5c4)c3)CC2)=C(c2ccc(Cl)cc2)C1 [EXAMPLE 273, 4-(4-{[2-(4-chlorophenyl)-4,4-dimethylcyclohex-1-en-1-yl]methyl}piperazin-1-yl)-2-(1H-indol-5-yloxy)-N-[(3-nitro-4-{[2-(3-oxopiperazin-1-yl)ethyl]amino}phenyl)sulfonyl]benzamide] | 2396.1 |
| COCCCNc1ccc(S(=O)(=O)NC(=O)c2ccc(N3CCN(CC4=C(c5ccc(Cl)cc5)CC(C)(C)CC4)CC3)cc2Oc2ccc3[nH]ccc3c2)cc1[N+](=O)[O-] [EXAMPLE 317, 4-(4-{[2-(4-chlorophenyl)-4,4-dimethylcyclohex-1-en-1-yl]methyl}piperazin-1-yl)-2-(1H-indol-5-yloxy)-N-({4-[(3-methoxypropyl)amino]-3-nitrophenyl}sulfonyl)benzamide] | >235.9 |
| O=C(NS(=O)(=O)c1ccc(NCC2CCOCC2)c([N+](=O)[O-])c1)c1ccc(N2CCN(Cc3ccccc3-c3ccc(Cl)cc3)CC2)cc1Oc1ccccc1 [Example 1, 4-{4-[(4′-chloro-1,1′-biphenyl-2-yl)methyl]piperazin-1-yl}-N-({3-nitro-4-[(tetrahydro-2H-pyran-4-ylmethyl)amino]phenyl}sulfonyl)-2-phenoxybenzamide] | 85.4 |
| C[C@@H](c1ccccc1-c1ccc(Cl)cc1)N1CCN(c2ccc(C(=O)NS(=O)(=O)c3ccc(NCC4CCOCC4)c([N+](=O)[O-])c3)c(Oc3cccc4[nH]ccc34)c2)CC1 [EXAMPLE 256, 4-{4-[(1S)-1-(4′-chloro-1,1′-biphenyl-2-yl)ethyl]piperazin-1-yl}-2-(1H-indol-4-yloxy)-N-({3-nitro-4-[(tetrahydro-2H-pyran-4-ylmethyl)amino]phenyl}sulfonyl)benzamide] | >5519.8 |
| Cc1ccc(S(=O)(=O)NC(=O)c2ccc(N3CCN(Cc4ccccc4-c4ccc(Cl)cc4)CC3)cc2Oc2ccccc2)cc1 [Example 61, 4-{4-[(4′-chloro-1,1′-biphenyl-2-yl)methyl]piperazin-1-yl}-N-[(4-methylphenyl)sulfonyl]-2-phenoxybenzamide] | >12.6 |
| CC1(C)CCC(CN2CCN(c3ccc(C(=O)NS(=O)(=O)c4ccc(NCC5COCCO5)c([N+](=O)[O-])c4)c(Oc4cccc5[nH]cnc45)c3)CC2)=C(c2ccc(Cl)cc2)C1 (centres unmarked) [EXAMPLE 450, 2-(1H-benzimidazol-4-yloxy)-4-(4-{[2-(4-chlorophenyl)-4,4-dimethylcyclohex-1-en-1-yl]methyl}piperazin-1-yl)-N-({4-[(1,4-dioxan-2-ylmethyl)amino]-3-nitrophenyl}sulfonyl)benzamide] | 107.3 |
| CC1(C)CCC(CN2CCN(c3ccc(C(=O)NS(=O)(=O)c4ccc(NCc5cncs5)c([N+](=O)[O-])c4)c(Oc4ccc5[nH]ccc5c4)c3)CC2)=C(c2ccc(Cl)cc2)C1 [EXAMPLE 288, 4-(4-{[2-(4-chlorophenyl)-4,4-dimethylcyclohex-1-en-1-yl]methyl}piperazin-1-yl)-2-(1H-indol-5-yloxy)-N-({3-nitro-4-[(1,3-thiazol-5-ylmethyl)amino]phenyl}sulfonyl)benzamide] | >3730.9 |
| CC1(C)CCC(c2ccc(Cl)cc2)=C(CN2CCN(c3ccc(C(=O)NS(=O)(=O)c4ccc(NCC5CCOCC5)c([N+](=O)[O-])c4)c(Oc4ccc5[nH]ccc5c4)c3)CC2)C1 [EXAMPLE 290, 4-(4-{[2-(4-chlorophenyl)-5,5-dimethylcyclohex-1-en-1-yl]methyl}piperazin-1-yl)-2-(1H-indol-5-yloxy)-N-({3-nitro-4-[(tetrahydro-2H-pyran-4-ylmethyl)amino]phenyl}sulfonyl)benzamide] | >1808.5 |
| O=C(NS(=O)(=O)c1ccc(NCCCN2CCOCC2)cc1)c1ccc(N2CCN(Cc3ccccc3-c3ccc(Cl)cc3)CC2)cc1Oc1ccccc1 [Example 78, 4-{4-[(4′-chloro-1,1′-biphenyl-2-yl)methyl]piperazin-1-yl}-N-({4-[(3-morpholin-4-ylpropyl)amino]phenyl}sulfonyl)-2-phenoxybenzamide] | >5.9 |
| CC1(C)CCC(CN2CCN(c3ccc(C(=O)NS(=O)(=O)c4ccc(NCC5CCOCC5)c(S(=O)(=O)C(F)(F)F)c4)c(Oc4ccc5[nH]ccc5c4)c3)CC2)=C(c2ccc(Cl)cc2)C1 [EXAMPLE 304, 4-(4-{[2-(4-chlorophenyl)-4,4-dimethylcyclohex-1-en-1-yl]methyl}piperazin-1-yl)-2-(1H-indol-5-yloxy)-N-({4-[(tetrahydro-2H-pyran-4-ylmethyl)amino]-3-[(trifluoromethyl)sulfonyl]phenyl}sulfonyl)benzamide] | >973.5 |
| O=C(NS(=O)(=O)c1ccc(NCC2CCOCC2)c([N+](=O)[O-])c1)c1ccc(N2CCN(CC3=C(c4ccc(Cl)cc4)CCC(O)C3)CC2)cc1Oc1ccc2[nH]ccc2c1 (centres unmarked) [EXAMPLE 248, 4-(4-{[2-(4-chlorophenyl)-5-hydroxycyclohex-1-en-1-yl]methyl}piperazin-1-yl)-2-(1H-indol-5-yloxy)-N-({3-nitro-4-[(tetrahydro-2H-pyran-4-ylmethyl)amino]phenyl}sulfonyl)benzamide] | 12079.6 |
| CN(C)CCOc1cccc(-c2ccc(Cl)cc2)c1CN1CCN(c2ccc(C(=O)NS(=O)(=O)c3ccc(NC4CCN(C5CCOCC5)CC4)c([N+](=O)[O-])c3)c(Oc3cccc4[nH]ccc34)c2)CC1 [EXAMPLE 199, 4-[4-({4′-chloro-3-[2-(dimethylamino)ethoxy]-1,1′-biphenyl-2-yl}methyl)piperazin-1-yl]-2-(1H-indol-4-yloxy)-N-({3-nitro-4-[(1-tetrahydro-2H-pyran-4-ylpiperidin-4-yl)amino]phenyl}sulfonyl)benzamide] | 369.8 |
